Assay results reported in patent US4073935A, “Substituted propanol-(2)-derivatives and their nicotinic acid esters, and process for their preparation, and the use thereof as hypolipemic drugs” (Klinge Pharma GmbH & Co., priority 1974, dated 1978).
Where two headings read alike, the source gives them in different places.

System: serum lipids
Test: Lipid-lowering action in normolipemic rats
Assay type: in vivo
Conditions: Rattus norvegicus, 72 h, 4 × 100 mg/kg oral over 3 days, male Wistar rats, vs controls, X ± Sx
Description: Lipid-lowering action was tested on groups of 10 male Wistar rats (Ivanovas-Kisslegg), weight 200-220 g, normolipemic, or ordinary ration ("ssniff" complete feed).
The test compounds were taken up in an aqueous solution of 0.25% agar and 0.85% NaCl and administered orally. After administration of 4 × 100 mg/kg over a period of 3 days, the animals were bled by cardiac puncture after privation of […] for 4 hours.^1
^1 H. Enomoto and R. Zschocke, 3rd Int. Symp. Atheroscler, Berlin 1973, Abstr. 238.
Serum lipids were determined with a Technicon autoanalyzer. Total cholesterol (TC) was tested by the Liebermann-Burchard reaction. Quantitative analysis for triglycerides (TG) was performed by Eggstein and Kreutz's enzyme method (Klin. Wschr. 44, 262, 1966), modified for autoanalyzer.
Lipid lowering effect is expressed as percent lowering of total cholesterol and triglycerides compared to controls.

[1] = read-out: % Lowering TC (total cholesterol)
[2] = read-out: % Lowering TG (triglycerides)

Compound	inhibition in vivo at 100 mg/kg [1] [%]	inhibition in vivo at 100 mg/kg [2] [%]
COC(=O)c1ccc(OCC(O)CNc2ccc(C(C)(C)C)cc2)cc1 (stereo not drawn) [Compound 35]	51.9 ± 9.3	79.2 ± 9
COC(=O)C=Cc1ccc(OCC(O)CNc2ccc(C(C)(C)C)cc2)cc1 (stereo not drawn) [Compound 37, 3-(4'-(2'-methoxycarbonylvinyl)-phenoxy)-1-(4'-t-butylphenylamino)-propanol-(2)]	32.8 ± 13.7	71.9 ± 13.5
COC(=O)c1ccc(OCC(O)CSc2ccc(Cl)cc2)cc1 (stereo not drawn) [Compound 38]	12.3 ± 14.6	53 ± 17.6
COC(=O)C=Cc1ccc(OCC(O)CSc2ccc(Cl)cc2)cc1 (stereo not drawn) [Compound 40, 3-(4'-(2-methoxycarbonylvinyl)-phenoxy)-1-(4'-chlorophenylmercapto)-propanol-(2)]	9.6 ± 9.1	59.4 ± 14.7
COC(=O)c1ccc(OCC(O)CSc2ccc(C(C)(C)C)cc2)cc1 (stereo not drawn) [Compound 43]	37.2 ± 13.8	71 ± 12.5
COCCOC(=O)c1ccc(OCC(O)COc2ccc(Cl)cc2)cc1 (stereo not drawn) [Compound 45]	51.7 ± 12.2	75.8 ± 17.1
O=C(C=Cc1ccc(OCC(O)COc2ccc(Cl)cc2)cc1)OCCO (stereo not drawn) [Compound 46]	32.3 ± 19.7	69.5 ± 8.9
COCCOC(=O)C=Cc1ccc(OCC(O)COc2ccc(Cl)cc2)cc1 (stereo not drawn) [Compound 47]	44.4 ± 18	57.8 ± 10.7
CC(C)(C)c1ccc(OCC(O)COc2ccc(C(=O)OCCO)cc2)cc1 (stereo not drawn) [Compound 48]	60.4 ± 6.7	85.5 ± 15.6
COCCOC(=O)c1ccc(OCC(O)COc2ccc(C(C)(C)C)cc2)cc1 (stereo not drawn) [Compound 49]	33.1 ± 16.7	76.1 ± 14.6
CC(C)(C)c1ccc(OCC(O)COc2ccc(C=CC(=O)OCCO)cc2)cc1 (stereo not drawn) [Compound 50]	49.3 ± 11.7	84.2 ± 5.4
COCCOC(=O)C=Cc1ccc(OCC(O)COc2ccc(C(C)(C)C)cc2)cc1 (stereo not drawn) [Compound 51]	47.8 ± 10.4	77 ± 7.4
O=C(OCCO)c1ccc(OCC(O)CNc2ccc(Cl)cc2)cc1 (stereo not drawn) [Compound 52]	50 ± 10	53.9 ± 13.3
O=C(O)c1ccc(OCC(O)COc2ccc(Cl)cc2)cc1 (stereo not drawn) [Compound 53, 3-(4'-Carboxyphenoxy)-1-(4'-chlorphenoxy)-propanol-(2)]	40.5 ± 13.5	83.6 ± 15.5
O=C(O)c1cccc(OCC(O)COc2ccc(Cl)cc2)c1 (stereo not drawn) [Compound 54, 3-(3'-Carboxyphenoxy)-1-(4'-chlorphenoxy)-propanol-(2)]	28.7 ± 10.2	80 ± 11.4
O=C(O)C=Cc1ccc(OCC(O)COc2ccc(Cl)cc2)cc1 (stereo not drawn) [Compound 55, 3-(4'-(2-carboxyvinyl)-phenoxy)-1-(4'-chlorophenoxy)propanol-(2)]	45.4 ± 9.2	49.9 ± 23.7
O=C(O)CCc1ccc(OCC(O)COc2ccc(Cl)cc2)cc1 (stereo not drawn) [Compound 56, 3-4'-(2-Carboxyathyl)-phenoxy!-1-(4'-chlorphenoxy)-propanol-(2)]	48 ± 12.9	76.7 ± 7.7
O=C(O)C=Cc1cccc(OCC(O)COc2ccc(Cl)cc2)c1 (stereo not drawn) [Compound 57, 3-3'-(2-Carboxyvinyl)-phenoxy!-1-(4'-chlorphenoxy)-propanol-(2)]	28.4 ± 11.1	61.8 ± 10.9
O=C(O)CCc1cccc(OCC(O)COc2ccc(Cl)cc2)c1 (stereo not drawn) [Compound 58, 3-3'-(2-Carboxyathyl)-phenoxy!-1-(4'-chlorphenoxy)-propanol-(2)]	42.2 ± 5.6	71.3 ± 7.6
CC(C)(C)c1ccc(OCC(O)COc2ccc(C(=O)O)cc2)cc1 (stereo not drawn) [Compound 59, 3-(4'-Carboxyphenoxy)-1-(4'-t-butylphenoxy)-propanol-(2)]	45.7 ± 14.3	66.7 ± 8.1
CC(C)(C)c1ccc(OCC(O)COc2ccc(C=CC(=O)O)cc2)cc1 (stereo not drawn) [Compound 61, 3-4'-(2-Carboxyvinyl)-phenoxy!-1-(4'-t-butylphenoxy)-propanol-(2)]	44.9 ± 13.8	81.2 ± 17.1
CC(C)(C)c1ccc(OCC(O)COc2ccc(CCC(=O)O)cc2)cc1 (stereo not drawn) [Compound 62, 3-4'-(2-Carboxyathyl)-phenoxy!-1-(4'-t-butylphenoxy)-propanol-(2)]	38.7 ± 15	91.9 ± 5
O=C(O)c1ccc(OCC(O)CNc2ccc(Cl)cc2)cc1 (stereo not drawn) [Compound 65, 3-(4'-Carboxyphenoxy)-1-(4'-chlorphenylamino)-propanol-(2)]	20.9 ± 13.7	72.9 ± 11.3

Compound	inhibition in vivo at 100 mg/kg [1] [%]	inhibition in vivo at 100 mg/kg [2] [%]
O=C(O)c1ccc(NCC(O)COc2ccc(Cl)cc2)cc1 (stereo not drawn) [Compound 68, 3-(4'-Carboxyphenylamino)-1-(4'-chlorphenoxy)-propanol-(2)]	15.2 ± 10	54.1 ± 17
CC(C)(C)c1ccc(OCC(O)CNc2ccc(C(=O)O)cc2)cc1 (stereo not drawn) [Compound 70, 3-(4'-Carboxyphenylamino)-1-(4'-t-butylphenoxy)-propanol-(2)]	33.3 ± 12.2	78.1 ± 10.4
CC(C)(C)c1ccc(OCC(O)CNc2cccc(C(=O)O)c2)cc1 (stereo not drawn) [Compound 71, 3-(3'-Carboxyphenylamino)-1-(4'-t-butylphenoxy)-propanol-(2)]	28.9 ± 9.5	58.4 ± 15.5
CC(C)(C)c1ccc(NCC(O)COc2ccc(C(=O)O)cc2)cc1 (stereo not drawn) [Compound 72, 3-(4'-Carboxyphenoxy)-1-(4'-t-butylphenylamino)-propanol-(2)]	53.7 ± 10.4	75.1 ± 9.9
CC(C)(C)c1ccc(NCC(O)COc2ccc(C=CC(=O)O)cc2)cc1 (stereo not drawn) [Compound 74, 3-4'-(2-Carboxyvinyl)-phenoxy!-1-(4'-t-butylphenylamino)-propanol-(2)]	50.7 ± 6.4	69.7 ± 9.6
O=C(O)c1ccc(OCC(O)CSc2ccc(Cl)cc2)cc1 (stereo not drawn) [Compound 75, 3-(4'-Carboxyphenoxy)-1-(4'-chlorphenylmercapto)-propanol-(2)]	32.2 ± 8.7	55.8 ± 14.2
O=C(O)C=Cc1ccc(OCC(O)CSc2ccc(Cl)cc2)cc1 (stereo not drawn) [Compound 77, 3-4'-(2-Carboxyvinyl)-phenoxy!-1-(4'-chlorphenylmercapto)-propanol-(2)]	55.5 ± 12.7	77.8 ± 12
CC(C)(C)c1ccc(SCC(O)COc2ccc(C(=O)O)cc2)cc1 (stereo not drawn) [Compound 80, 3-(4'-Carboxyphenoxy)-1-(4'-t-butylphenylmercapto)-propanol-(2)]	48.2 ± 11.6	71.6 ± 18.6
CC(C)(C)c1ccc(SCC(O)COc2ccc(C=CC(=O)O)cc2)cc1 (stereo not drawn) [Compound 81, 3-4'-(2-Carboxyvinyl)-phenoxy!-1-(4'-t-butylphenylmercapto)-propanol-(2)]	27.5 ± 12.7	58.7 ± 14.8
O=C(OCCCl)c1ccc(OCC(O)COc2ccc(Cl)cc2)cc1 (stereo not drawn) [Compound 82]	53.9 ± 9.1	83.8 ± 6
CN(C)CCOC(=O)c1ccc(OCC(O)COc2ccc(Cl)cc2)cc1 (stereo not drawn) [Compound 83]	46.2 ± 15.4	72.5 ± 11.1
O=C(OCc1cccnc1)c1ccc(OCC(O)COc2ccc(Cl)cc2)cc1 (stereo not drawn) [Compound 85, 3-(4'-pyridyl-(3)-methoxycarbonylphenoxy)-1-(4'-chlorophenoxy)-propanol-(2)]	52 ± 8.6	81.4 ± 5.9
COC(=O)c1ccc(OCC(COc2ccc(Cl)cc2)OC(=O)c2cccnc2)cc1 (stereo not drawn) [Compound 95, 3-(4'-methoxycarbonylphenoxy)-1-(4'-chlorophenoxy)-propanol-(2) nicotinic acid ester]	38.3 ± 15.4	63.8 ± 14.8
CC(C)OC(=O)c1ccc(OCC(COc2ccc(Cl)cc2)OC(=O)c2cccnc2)cc1 (stereo not drawn) [Compound 96]	36.8 ± 14.3	74 ± 4.8
COC(=O)c1ccc(OCC(CSc2ccc(Cl)cc2)OC(=O)c2cccnc2)cc1 (stereo not drawn) [Compound 104]	48 ± 7.9	81.1 ± 5.6
O=C(NO)c1ccc(OCC(O)COc2ccc(Cl)cc2)cc1 (stereo not drawn) [Compound 105]	29.8 ± 14.3	53.2 ± 11.2
O=C(C=Cc1ccc(OCC(O)COc2ccc(Cl)cc2)cc1)NO (stereo not drawn) [Compound 106, 3-(4'-(2-(n-hydroxycarbamoyl)-vinyl)-phenoxy)-1-(4'-chlorophenoxy)-propanol-(2)]	43.9 ± 19.4	64.2 ± 17.1
O=C(CCc1ccc(OCC(O)COc2ccc(Cl)cc2)cc1)NO (stereo not drawn) [Compound 107]	49.6 ± 13.3	84.8 ± 4.1
CC(C)(C)c1ccc(OCC(O)COc2ccc(C(=O)NO)cc2)cc1 (stereo not drawn) [Compound 108]	51.1 ± 8.3	77.8 ± 3.3
CCOC(OCC)c1ccc(OCC(O)COc2ccc(Cl)cc2)cc1 (stereo not drawn) [Compound 110]	32.1 ± 15.8	68 ± 6.5
COC(OC)c1ccc(OCC(O)COc2ccc(C(C)(C)C)cc2)cc1 (stereo not drawn) [Compound 113]	44.4 ± 11.2	84 ± 8.8
CC(C)(C)c1ccc(OCC(O)COc2ccc(C3OCCO3)cc2)cc1 (stereo not drawn) [Compound 114]	67.9 ± 6.6	91.6 ± 4.8
